The subject of data set [1] is srfA promoter in B. subtilis PS-216 (∆comQ, PsrfAA-yfp). Put plainly: srfA promoter response (Yfp fluorescence per cell) to exogenously added ComX. It is filed as cell-based, Bacillus subtilis. As to the method:
In our model, the expression level of the srfA operon serves as a measure for the response (RM) to the signal molecule SM, represented by ComX. To study how RM depends on SM we evaluated promoter activity of srfA in the B. subtilis PS-216 (∆comQ, PsrfAA-yfp), which carries the markerless deletion of comQ[42] and is therefore signal-deficient. […] The response to SM was sigmoidal. […] We have therefore taken the 4 hours response curve (Fig. 4a) as a reference for further communication system analysis. The sigmoidal functions can typically describe the relationship between transcription factors and promoter activities, and can be modeled by the Hill equation[43],[44]. […] This agrees with the research showing that two molecules of the ComA homodimer cooperatively bind to the two promoter regions located upstream of the RNAP binding sites of srfA[13],[20],[45].
To quantify a response (RM) to different signal molecule (SM) concentrations at the population level we used the signal deficient B. subtilis PS-216 (∆comQ PsrfAA-yfp), which carries the comQ marker-less deletion and the srfA promoter tagged with the Yfp fluorescent reporter (Supplementary Table 1).
(final concentration of 50 µg mL^–1). […] The plate was placed on a microtiter plate shaker (1 mm orbit, 1100 rpm) that was positioned in the humidified chamber to eliminate sample evaporation. To improve the homogeneity of the conditions (airflow, temperature) on the microtiter plate the microtiter plate lids were elevated by 2 mm relative to the surface of microtiter plate. The plates were incubated at 37 °C for 3, 4, or 6 h. The cells were then re-suspended and fixed in 200 µL of 1% agarose containing DAPI dye (6 µg mL^−1).
For quantitative analysis we used laser confocal fluorescence microscopy (Zeiss, LSM 800). The images were acquired by two laser channels—488 nm laser for acquiring fluorescence from Yfp protein and 405 nm laser to acquire fluorescence from DAPI dye. The acquired images were 1024 × 1024 pixels in size with 16-bit color depth at 20× optical magnification (objective 20×/NA 0.4, Zeiss) and were analyzed with Fiji-ImageJ[59] custom script. Four images per well of microtiter plate were taken, each image contained about 350 cells. The measure for amount of Yfp on image was integrated density i.e., the product of mean fluorescence intensity and area taken by the cells. The response per cell was quantified as the ratio of image integrated density by the number of cells obtained from DAPI image.
The analytical form of the model equation for response per cell to the signal during bacterial growth in the fermenter batch system (Eq. 3, eq S11) was derived and fitted to the experimental data by the help of Wolfram Mathematica 11.0 (Wolfram Research, Inc.). […]

The test system of data set [2] is ComX biosensor BD2876 (ΔcomQ, srfA-lacZ). Put plainly: β-galactosidase response of ComX biosensor BD2876 to spent medium or added ComX. It is filed as cell-based, Bacillus subtilis. The note with it: ≈1 nM ComX in PS-216 ΔcomQ spent medium (positive control).
Protocol: Overnight cultures were grown in competence medium[57] (CM) supplemented with L-histidine, L-leucine, and L-methionine (50 μg mL^–1). Prior to fermenter inoculation, the cells were washed twice by replacing the spent medium of overnight culture with SS buffer[58]. Cell suspension was inoculated into 1.2 L of fresh CM (2% inoculum). Incubation was performed at 37 °C with mixing at 700 rpm and the closed off air flow. In instances where we tested O2 impact on SM concentration the medium was saturated with O2 by ensuring a supply of compressed air at a flow rate of 1 L min^-1. The dissolved O2 was measured using the O2 polarized electrode InPro 6820 (Mettler Toledo). No pH correction was performed or anti foaming agents were added.
control) ▲,,, or supplemented with the wt strain spent medium 10 times diluted by spent medium of the
ΔcomQ strain (experimental) ▲,,; The spent medium of the PS-216 (ΔcomQ) strain was obtained in the
parallel fermenter batch system. The strains PS-216 wt and PS-216 (ΔcomQ) were grown in the fermenter batch
system where oxygen supply was limited (a) or supplied to the saturation (b).
to 3 independent experiments.
Data set [3] in a line: Aging of purified ComX stock solution followed by HPLC. It counts as physicochemical. The conditions noted are these: 4 °C. As to the method:
spectrometer (Bruker, Germany). FlexControl 3.3 software (Bruker, Germany) was used to control the instrument, FlexAnalysis 3.3 to process data and to calibrate spectra (Bruker, […]
two-sided), for about 2-fold compared to the original medium (Fig. S6b ). To further increase […]
recombinant proteins in E. coli and gained altogether significant 5-fold increase (P < 0.0001, t-value= 9.6, two- sided) compared to the original medium. The overnight LB E. coli ED367 culture, supplemented with 100 µg/mL of Amp, grown in 37 °C (200 rpm), was transferred to fresh TB medium (1 % inoculum) supplemented by 20 mM MgCl2 and 100 µg/mL of Amp.
After about 2 h and 45 min of incubation at 37 °C (200 rpm) when culture reached OD650 of […]., the spent growth medium was removed by culture centrifugation (5000 g, 5 min, room temperature). […]
β-galactosidase assay. […] To improve the sensitivity of the assay, the plates were then warmed to 30 °C, 25 μL ortho- nitrophenyl-β-galactoside (ONPG) substrate (8 mg/mL) was added and the absorbance (420 nm) in 1 min intervals was read using a Multiscan Spectrum […]
Supplementary Figure 5: Maximum normalized response measured as the srfA promoter activity of B. subtilis PS-216 (∆comQ, PsrfAA -yfp) (no signal production) to the exogenously added signal molecule, SM, (ComX). […]
SS buffer at 4 °C as measured by HPLC. […]

For data set [4], the system named is B. subtilis proteases. As to the kind of experiment: Biological degradation of ComX in B. subtilis spent medium. It is filed as in vitro ADME, Bacillus subtilis. The note with it: spent CM medium max 7 h old; assumption from low protease content. How it is done: cells per unit volume (cell density), N(t) , and the time cells were producing the molecule, t . The molecule of interest can potentially get degraded by the degradation rate γ(t ). In the differential form and as a function of time one can express concentration of signal molecule SM(t) as:
dddddd (tt ) = PPdddd (tt ) NN (tt ) − γγ (tt )SSSS (tt ) eq S1 […]
spent medium obtained after 24 h of incubation with PS -216 wt (when the proteases accumulated in enough high concentration). In our case, however, the spent media were maxi mal 7 h old and the protease content of spent CM growth medium used in current study […]
(Supplementary Fig. 7). Therefore , we assumed that biological degradation of SM (ComX) is negligible under conditions in this study. Under the buffered conditions (as in CM growth […]
experiments where we applied our model. Therefore, in our modeling we assumed that degradation rate of SM is negligible (γ(t) ≈ 0) and the eq S 1 can be simplified to: […]
Normalized fluorescence intensity per cell Normalized fluorescence intensity per cell
Supplementary Figure 8: The second replicate (for first replicate, see Fig 5g,h) of the distribution of gene expression measured by single cell fluorescence microscopy. Gene expression level was measured as Na-fluoresceinate standard normalized mean fluorescence intensity per cells expressing comQ -yfp (a) and srfA -cfp (b). […]

Data set [5] has as its system B. subtilis proteases. The note with it: 24 h MSgg spent medium of PS-216 wt; 24 h incubation; ref Spacapan et al.22; cited from earlier work. The source says: page 5: cells per unit volume (cell density), N(t) , and the time cells were producing the molecule, t . The molecule of interest can potentially get degraded by the degradation rate γ(t ). […] The protease content of CM growth medium used in t ...

“Also recorded” adds a separate entry of the source.

Turning to “ADPITRQWGD [ComX, isoprenylated (farnesylated) quorum sensing signal peptide of B. subtilis, HPLC purified from E. coli ED367]”, the “ComX concentration at which the highest response value is reached” value in data set [1] (37 °C, CM medium, n = 4) is recorded as “around 10 nM”. For the same sequence, the “Shape of response to ComX” value in data set [1] (4 h incubation, exogenously added ComX) is “sigmoidal”. For the same sequence, in data set [1] (first significantly positive response (lower 95% confidence level > 0), 37 °C, CM medium), the “Lower limit response (LLR), critical ComX concentration required to induce quantifiable response” value was in the range of 0.2 to 0.5 nM. For the same sequence, the Km in data set [1] (read-out: Km, ComX concentration at which half of the maximum response is achieved, Hill fit (Eq. 2) of srfA promoter Yfp fluorescence per cell, CM medium, 37 °C, 3, 4 or 6 h incubation, BSA added, n = 4) fell in the range of 3 to 5 nM. Besides, the “Biosensor BD2876 response to added purified ComX” value in data set [2] is listed as “strongly responded”. Further, the “Half-life time of ComX” value in data set [3] (purified ComX stock (typically 200 nM) in SS buffer with BSA 50 μg/mL, n = 8 independent experiments) is recorded as “about 50 days”. Besides, the Chemical stability result in data set [3] (purified ComX, SS buffer) is “strong chemical stability”. The “Biological degradation in spent CM medium” value in the data set on B. subtilis proteases [4] is “negligible”. The “Degradation in MSgg spent medium” value with B. subtilis proteases [5] is on record as “significant level only after incubating ComX for 24 h; also recorded: can degrade”.

These data come from article PMC7794433, “Peptide signaling without feedback in signal production operates as a true quorum sensing communication system in Bacillus subtilis” (Communications Biology, 2021).
